Reference: ChEMBL document CHEMBL1137023, “Synthesis and antibacterial activity of arylpiperazinyl oxazolidinones with diversification of the N-substituents” (2004)
Values after ≈ are worked out from the molar mass of the structure shown.

Test system: Enterococcus faecalis
Experiment: Minimum inhibitory concentration against Enterococcus faecalis ATCC 29212
Format: functional
Conditions: not given

Compound | MIC [µg/mL]
COC(=S)NC[C@H]1CN(c2ccc(N3CCN(c4ccccn4)CC3)c(F)c2)C(=O)O1 | 0.12 (≈ 0.269 µM)
CC(=S)NC[C@H]1CN(c2ccc(N3CCN(c4ccccc4C)CC3)c(F)c2)C(=O)O1 | 0.05 (≈ 0.113 µM)
CC(=S)NC[C@H]1CN(c2ccc(N3CCN(c4ccc(Cl)cc4)CC3)c(F)c2)C(=O)O1 | 0.25 (≈ 0.54 µM)
COc1cccc(N2CCN(c3ccc(N4C[C@H](CNC(N)=S)OC4=O)cc3F)CC2)c1 | 0.06 (≈ 0.131 µM)
CC(=S)NC[C@H]1CN(c2ccc(N3CCN(c4cccc(F)c4)CC3)c(F)c2)C(=O)O1 | 0.03 (≈ 0.0672 µM)
COC(=S)NC[C@H]1CN(c2ccc(N3CCN(c4ccccc4)CC3)c(F)c2)C(=O)O1 | 0.25 (≈ 0.562 µM)
CSC(=S)NC[C@H]1CN(c2ccc(N3CCN(c4ccccn4)CC3)c(F)c2)C(=O)O1 | 0.12 (≈ 0.26 µM)
O=C1O[C@@H](COC2CNCCN2)CN1c1ccc(N2CCN(c3ccccc3Cl)CC2)c(F)c1 (stereo not given in full) | > 64
NC(=S)NC[C@H]1CN(c2ccc(N3CCN(c4ccccc4Cl)CC3)cc2)C(=O)O1 | 0.06 (≈ 0.135 µM)
CC(=S)NC[C@H]1CN(c2ccc(N3CCN(c4ccccn4)CC3)c(F)c2)C(=O)O1 | 0.25 (≈ 0.582 µM)
CSC(=S)NC[C@H]1CN(c2ccc(N3CCN(c4ccccc4C)CC3)c(F)c2)C(=O)O1 | 0.12 (≈ 0.253 µM)
CC(=S)NC[C@H]1CN(c2ccc(N3CCN(c4ccccc4)CC3)c(F)c2)C(=O)O1 | 0.25 (≈ 0.583 µM)
O=C1O[C@@H](CO[n+]2ccco2)CN1c1ccc(N2CCN(c3ccccc3Cl)CC2)c(F)c1 | > 64
COc1cccc(N2CCN(c3ccc(N4C[C@H](CNC(=S)SC)OC4=O)cc3)CC2)c1 | 0.12 (≈ 0.254 µM)

Test system: Staphylococcus aureus
Experiment: Minimum inhibitory concentration against Staphylococcus aureus ATCC 25923
Format: functional
Conditions: not given

Compound | MIC [µg/mL]
COC(=S)NC[C@H]1CN(c2ccc(N3CCN(c4ccccn4)CC3)c(F)c2)C(=O)O1 | 0.12 (≈ 0.269 µM)
CC(=S)NC[C@H]1CN(c2ccc(N3CCN(c4ccccc4C)CC3)c(F)c2)C(=O)O1 | 0.12 (≈ 0.271 µM)
CC(=S)NC[C@H]1CN(c2ccc(N3CCN(c4ccc(Cl)cc4)CC3)c(F)c2)C(=O)O1 | 0.12 (≈ 0.259 µM)
COc1cccc(N2CCN(c3ccc(N4C[C@H](CNC(N)=S)OC4=O)cc3F)CC2)c1 | 0.03 (≈ 0.0653 µM)
CC(=S)NC[C@H]1CN(c2ccc(N3CCN(c4cccc(F)c4)CC3)c(F)c2)C(=O)O1 | 0.12 (≈ 0.269 µM)
CC(=O)NC[C@H]1CN(c2ccc(N3CCOCC3)c(F)c2)C(=O)O1 [LINEZOLID] | 0.25 (≈ 0.741 µM)
COC(=S)NC[C@H]1CN(c2ccc(N3CCN(c4ccccc4)CC3)c(F)c2)C(=O)O1 | 0.25 (≈ 0.562 µM)
CSC(=S)NC[C@H]1CN(c2ccc(N3CCN(c4ccccn4)CC3)c(F)c2)C(=O)O1 | 0.06 (≈ 0.13 µM)
O=C1O[C@@H](COC2CNCCN2)CN1c1ccc(N2CCN(c3ccccc3Cl)CC2)c(F)c1 (stereo not given in full) | > 64
NC(=S)NC[C@H]1CN(c2ccc(N3CCN(c4ccccc4Cl)CC3)cc2)C(=O)O1 | 0.03 (≈ 0.0673 µM)
CC(=S)NC[C@H]1CN(c2ccc(N3CCN(c4ccccn4)CC3)c(F)c2)C(=O)O1 | 0.06 (≈ 0.14 µM)
CSC(=S)NC[C@H]1CN(c2ccc(N3CCN(c4ccccc4C)CC3)c(F)c2)C(=O)O1 | 0.12 (≈ 0.253 µM)
CC(=S)NC[C@H]1CN(c2ccc(N3CCN(c4ccccc4)CC3)c(F)c2)C(=O)O1 | 0.12 (≈ 0.28 µM)
O=C1O[C@@H](CO[n+]2ccco2)CN1c1ccc(N2CCN(c3ccccc3Cl)CC2)c(F)c1 | > 64
COc1cccc(N2CCN(c3ccc(N4C[C@H](CNC(=S)SC)OC4=O)cc3)CC2)c1 | 0.12 (≈ 0.254 µM)

Test system: not listed separately
Experiment: Minimum inhibitory concentration against […] ATCC 13813
Format: functional
Conditions: Streptococcus agalactiae

Compound | MIC [µg/mL]
COC(=S)NC[C@H]1CN(c2ccc(N3CCN(c4ccccn4)CC3)c(F)c2)C(=O)O1 | 0.06 (≈ 0.135 µM)
CC(=S)NC[C@H]1CN(c2ccc(N3CCN(c4ccccc4C)CC3)c(F)c2)C(=O)O1 | 0.12 (≈ 0.271 µM)
CC(=S)NC[C@H]1CN(c2ccc(N3CCN(c4ccc(Cl)cc4)CC3)c(F)c2)C(=O)O1 | 0.25 (≈ 0.54 µM)
COc1cccc(N2CCN(c3ccc(N4C[C@H](CNC(N)=S)OC4=O)cc3F)CC2)c1 | 0.06 (≈ 0.131 µM)
CC(=S)NC[C@H]1CN(c2ccc(N3CCN(c4cccc(F)c4)CC3)c(F)c2)C(=O)O1 | 0.12 (≈ 0.269 µM)
CC(=O)NC[C@H]1CN(c2ccc(N3CCOCC3)c(F)c2)C(=O)O1 [LINEZOLID] | 0.5 (≈ 1.48 µM)
COC(=S)NC[C@H]1CN(c2ccc(N3CCN(c4ccccc4)CC3)c(F)c2)C(=O)O1 | 0.12 (≈ 0.27 µM)
CSC(=S)NC[C@H]1CN(c2ccc(N3CCN(c4ccccn4)CC3)c(F)c2)C(=O)O1 | 0.25 (≈ 0.542 µM)
O=C1O[C@@H](COC2CNCCN2)CN1c1ccc(N2CCN(c3ccccc3Cl)CC2)c(F)c1 (stereo not given in full) | > 64
NC(=S)NC[C@H]1CN(c2ccc(N3CCN(c4ccccc4Cl)CC3)cc2)C(=O)O1 | 0.06 (≈ 0.135 µM)
CC(=S)NC[C@H]1CN(c2ccc(N3CCN(c4ccccn4)CC3)c(F)c2)C(=O)O1 | 0.12 (≈ 0.279 µM)
CSC(=S)NC[C@H]1CN(c2ccc(N3CCN(c4ccccc4C)CC3)c(F)c2)C(=O)O1 | 0.12 (≈ 0.253 µM)
CC(=S)NC[C@H]1CN(c2ccc(N3CCN(c4ccccc4)CC3)c(F)c2)C(=O)O1 | 0.12 (≈ 0.28 µM)
O=C1O[C@@H](CO[n+]2ccco2)CN1c1ccc(N2CCN(c3ccccc3Cl)CC2)c(F)c1 | > 64
COc1cccc(N2CCN(c3ccc(N4C[C@H](CNC(=S)SC)OC4=O)cc3)CC2)c1 | 0.25 (≈ 0.529 µM)

Test system: Staphylococcus aureus
Experiment: Antibacterial activity against Staphylococcus aureus was evaluated in infected mice
Format: functional
Conditions: not given

Compound | ED50 [mg/kg]
COC(=S)NC[C@H]1CN(c2ccc(N3CCN(c4ccccn4)CC3)c(F)c2)C(=O)O1 | > 16
CC(=O)NC[C@H]1CN(c2ccc(N3CCOCC3)c(F)c2)C(=O)O1 [LINEZOLID] | 4
CSC(=S)NC[C@H]1CN(c2ccc(N3CCN(c4ccccn4)CC3)c(F)c2)C(=O)O1 | > 16

Test system: Streptococcus pyogenes
Experiment: Minimum inhibitory concentration against Streptococcus pyogenes ATCC 8668
Conditions: not given

Compound | MIC [µg/mL]
CC(=O)NC[C@H]1CN(c2ccc(N3CCOCC3)c(F)c2)C(=O)O1 [LINEZOLID] | 0.5 (≈ 1.48 µM)
O=C1O[C@@H](COC2CNCCN2)CN1c1ccc(N2CCN(c3ccccc3Cl)CC2)c(F)c1 (stereo not given in full) | > 64
O=C1O[C@@H](CO[n+]2ccco2)CN1c1ccc(N2CCN(c3ccccc3Cl)CC2)c(F)c1 | > 64
